The values that follow come from patent publication US11236129B2, “IL-17A binding peptides and medical uses thereof” (Dompe' Farmaceutici S.P.A., priority 2018, dated 2022).

Series [1] addresses IL-17RA/IL17RC dimerization induced by IL-17A (Homo sapiens, UniProt Q16552). The experiment in a line: IL-17RA/IL17RC dimerization assay in response to IL-17A (PathHunter Cytokine Receptor Assay). Type of series: cell-based. The conditions noted are these: IL-17A at EC80; read-out: IC50 in IL-17RA/IL7RC dimerization assay. In a few lines:
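PathHunter cells with IL-17RA and IL-17RC tagged for β-galactosidase complementation were preincubated 60 min with peptide (1% vehicle). IL-17A was then added at EC80 for 6–16 h at 37 °C, and chemiluminescence was read. Inhibition is relative to the EC80 and vehicle controls.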

The format of series [2] is physicochemical. The conditions noted are these: pH 7.8. In a few lines:
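Peptides dissolved in phosphate buffer pH 7.8 as 10 mM stocks (more dilute for less soluble ones) and stored at 25 °C. Content measured by reversed-phase UHPLC (C18, 0.5% formic acid water/acetonitrile gradient, DAD 220-400 nm, ESI-MS ion trap) after 1:100 dilution to 100 μM, against 100 μM standards, at T0, 3 days and 1 week.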

Series [3] in a line: Isoelectric point, log D and log P (SiriusT3). The note with it: for IP (isoelectric point): 25±1° C., 0.15 M KCl. The series is classed as physicochemical.
The mark [4] stands for this setting: octanol/ISA water, read-out: logP.
Where [5] appears, read: pH 7.4, pH 7.4, octanol/ISA water, read-out: Log D (7.4).

Molecules are shown by their SMILES. Where two headings read alike, the source gives them in different places. Residues, ends and D or L forms follow the SMILES beside them.

Sequence of IL-17RA/IL17RC dimerization induced by IL-17A (Q16552 24-155): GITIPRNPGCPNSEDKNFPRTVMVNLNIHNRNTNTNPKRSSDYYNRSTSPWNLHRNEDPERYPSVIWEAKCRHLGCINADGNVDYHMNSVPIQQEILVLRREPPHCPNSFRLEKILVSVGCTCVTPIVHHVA

Broadly, the solubility is the concentration that dissolves in the medium under given conditions. The low end stands for a poorly soluble substance, the high end for a readily soluble substance. In general, logP refers to a log measure of how a compound divides between an organic and an aqueous phase. With `CC[C@H](C)[C@H](NC(=O)[C@H](Cc1c[nH]c2ccccc12)NC(=O)[C@H](CCC(=O)O)NC(=O)[C@H](Cc1ccc(O)cc1)NC(=O)[C@H](CC(C)C)NC(=O)[C@H](CC(=O)O)NC(=O)[C@H](C)NC(=O)[C@@H]1CCCN1C(=O)[C@@H](NC(=O)[C@@H](NC(=O)[C@@H](NC(=O)[C@H](CCSC)NC(=O)[C@@H](NC(C)=O)C(C)C)C(C)C)[C@@H](C)O)[C@@H](C)CC)C(=O)N[C@@H](CCCNC(=N)N)C(=O)N[C@@H](CCCNC(=N)N)C(N)=O` [SEQ ID NO: 17] (Ac-VMVTIPADLYEWIRR-NH2), the IC50 in series [1] is less than 400 nM. For the same compound, in series [2], the solubility is more than 10 mM. Further, the “IP (isoelectric point)” value in series [3] is 8.05. The log partition coefficient (logP) in series [3] (setting [4]) is -0.44. Also, the logD in series [3] (setting [5]) is -3.68.
In the case of `CC[C@H](C)[C@H](NC(=O)[C@H](Cc1c[nH]c2ccccc12)NC(=O)[C@H](CCC(=O)O)NC(=O)[C@H](Cc1ccc(O)cc1)NC(=O)[C@H](CC(C)C)NC(=O)[C@H](CC(=O)O)NC(=O)[C@H](C)NC(=O)[C@@H]1CCCN1C(=O)[C@@H](NC(=O)[C@@H](NC(=O)[C@@H](NC(=O)[C@H](CCSC)NC(=O)[C@@H](NC(=O)CNC(=O)[C@H](CC(=O)O)NC(=O)CNC(=O)[C@@H]1CCCN1C(=O)[C@@H](NC(C)=O)C(C)C)C(C)C)C(C)C)[C@@H](C)O)[C@@H](C)CC)C(=O)N[C@@H](CCC(=O)O)C(=O)N[C@@H](CCC(=O)O)C(N)=O` [SEQ ID NO: 39] (Ac-VPGDGVMVTIPADLYEWIEE-NH2), in series [1], the IC50 is less than 200 nM. In series [2], this compound came in with a solubility of more than 10 mM. For the same compound, the “IP (isoelectric point)” value in series [3] amounted to 4.2. Moreover, the logP in series [3] (setting [4]) is -5.36. In series [3] (setting [5]), the logD was -2.86.
The corresponding values for `CC[C@H](C)[C@H](NC(=O)[C@H](Cc1c[nH]c2ccccc12)NC(=O)[C@H](CCC(=O)O)NC(=O)[C@H](Cc1ccc(O)cc1)NC(=O)[C@H](CC(C)C)NC(=O)[C@H](CC(=O)O)NC(=O)[C@H](C)NC(=O)[C@@H]1CCCN1C(=O)[C@@H](NC(=O)[C@@H](NC(=O)[C@@H](NC(=O)[C@H](CCSC)NC(=O)[C@@H](NC(=O)CNC(=O)[C@H](Cc1c[nH]c2ccccc12)NC(=O)CNC(=O)[C@@H]1CCCN1C(=O)[C@@H](NC(C)=O)C(C)C)C(C)C)C(C)C)[C@@H](C)O)[C@@H](C)CC)C(=O)N[C@@H](CCC(=O)O)C(=O)N[C@@H](CCC(=O)O)C(N)=O` [SEQ ID NO: 34] (Ac-VPGWGVMVTIPADLYEWIEE-NH2) are less than 1000 nM, less than 0.05 mM, 5.14, -5.43 and -3.38.
`CC[C@H](C)[C@H](NC(C)=O)C(=O)N[C@@H](Cc1c[nH]cn1)C(=O)N[C@H](C(=O)N[C@H](C(=O)N[C@H](C(=O)N1CCC[C@H]1C(=O)N[C@@H](C)C(=O)N[C@@H](CC(=O)O)C(=O)N[C@@H](CC(C)C)C(=O)N[C@@H](Cc1c[nH]c2ccccc12)C(=O)N[C@@H](CC(=O)O)C(=O)N[C@@H](Cc1c[nH]c2ccccc12)C(=O)N[C@H](C(=O)N[C@@H](CC(N)=O)C(=O)N[C@@H](CCCNC(=N)N)C(N)=O)[C@@H](C)CC)[C@@H](C)CC)[C@@H](C)O)C(C)C` [SEQ ID NO: 10] (Ac-IHVTIPADLWDWINR-NH2): the IC50 in series [1] was less than 400 nM. The solubility in series [2] is more than 10 mM. The “IP (isoelectric point)” value in series [3] is given as 5.14. In series [3] (logP), this compound displayed a logP of 0.09. In series [3] (pH 7.4, Log D (7.4)), this compound returned a logD of -3.66.
Take `CC[C@H](C)[C@H](NC(=O)[C@H](Cc1c[nH]c2ccccc12)NC(=O)[C@H](CCC(=O)O)NC(=O)[C@H](Cc1ccc(O)cc1)NC(=O)[C@H](CC(C)C)NC(=O)[C@H](CC(=O)O)NC(=O)[C@H](C)NC(=O)[C@@H]1CCCN1C(=O)[C@@H](NC(=O)[C@@H](NC(=O)[C@@H](NC(=O)[C@H](CCSC)NC(=O)[C@@H](NC(C)=O)C(C)C)C(C)C)[C@@H](C)O)[C@@H](C)CC)C(=O)N[C@@H](CCC(=O)O)C(=O)N[C@@H](CCC(=O)O)C(=O)N[C@@H](C)C(=O)N[C@@H](CCCNC(=N)N)C(=O)N[C@@H](CCCCN)C(=O)N[C@@H](CCCCN)C(=O)N[C@@H](C)C(=O)N[C@@H](C)C(=O)N[C@@H](CCCCN)C(=O)N[C@@H](C)C(N)=O` [SEQ ID NO: 21] (Ac-VMVTIPADLYEWIEEARKKAAKA-NH2): the IC50 in series [1] was less than 1000 nM. The solubility in series [2] was more than 10 mM. Moreover, the “IP (isoelectric point)” value in series [3] came out at 10.6. Besides, the logP in series [3] (setting [4]) is -4.99. Moreover, the logD in series [3] (setting [5]) is -0.55.
Regarding `CC[C@H](C)[C@H](NC(=O)[C@H](Cc1c[nH]c2ccccc12)NC(=O)[C@H](CCC(=O)O)NC(=O)[C@H](Cc1ccc(O)cc1)NC(=O)[C@H](CC(C)C)NC(=O)[C@H](CC(=O)O)NC(=O)[C@H](C)NC(=O)[C@@H]1CCCN1C(=O)[C@@H](NC(=O)[C@@H](NC(=O)[C@@H](NC(=O)[C@H](CCSC)NC(=O)[C@@H](NC(C)=O)C(C)C)C(C)C)[C@@H](C)O)[C@@H](C)CC)C(=O)N[C@@H](CCC(=O)O)C(=O)N[C@@H](CCC(=O)O)C(=O)NCC(=O)NCC(=O)N[C@@H](CCCCN)C(=O)N[C@@H](CCC(=O)O)C(=O)N[C@H](C(=O)N[C@@H](Cc1c[nH]c2ccccc12)C(=O)N[C@@H](Cc1c[nH]c2ccccc12)C(=O)N[C@@H](CCC(=O)O)C(=O)N[C@H](C(=O)N[C@@H](Cc1c[nH]c2ccccc12)C(N)=O)[C@@H](C)O)[C@@H](C)O` [SEQ ID NO: 25] (Ac-VMVTIPADLYEWIEEGGKETWWETW-NH2), in series [1], the IC50 was less than 1000 nM. The same compound displayed a solubility in series [2] not below 0.1 mM. Besides, in series [3], the “IP (isoelectric point)” value is listed as 4.66. Besides, in series [3] (setting [4]), the logP worked out at 0.4. Also, the logD in series [3] (setting [5]) is -5.64.
As to `CC[C@H](C)[C@H](NC(=O)[C@H](Cc1c[nH]c2ccccc12)NC(=O)[C@H](CCC(=O)O)NC(=O)[C@H](Cc1ccc(O)cc1)NC(=O)[C@H](CC(C)C)NC(=O)[C@H](CC(=O)O)NC(=O)[C@H](C)NC(=O)[C@@H]1CCCN1C(=O)[C@@H](NC(=O)[C@@H](NC(=O)[C@@H](NC(=O)[C@H](CCSC)NC(=O)[C@@H](NC(C)=O)C(C)C)C(C)C)[C@@H](C)O)[C@@H](C)CC)C(=O)N[C@@H](CCC(=O)O)C(=O)N[C@@H](CCC(=O)O)C(=O)N[C@H](C(=O)N1CCC[C@H]1C(=O)NCC(=O)N[C@@H](C)C(=O)NCC(=O)N[C@H](C(=O)N1CCC[C@H]1C(=O)NCC(=O)N[C@@H](C)C(=O)NCC(N)=O)C(C)C)C(C)C` [SEQ ID NO: 37] (Ac-VMVTIPADLYEWIEEVPGAGVPGAG-NH2), in series [1], the IC50 is less than 200 nM. The compound further had a solubility in series [2] of more than 10 mM. The “IP (isoelectric point)” value in series [3] was 5.14. Besides, the logD in series [3] (setting [5]) was -3.9.
Consider `CC[C@H](C)[C@H](NC(C)=O)C(=O)N[C@@H](CCSC)C(=O)N[C@H](C(=O)N[C@H](C(=O)N[C@H](C(=O)N1CCC[C@H]1C(=O)N[C@@H](C)C(=O)N[C@@H](CC(=O)O)C(=O)N[C@@H](CC(C)C)C(=O)N[C@@H](Cc1c[nH]c2ccccc12)C(=O)N[C@@H](CC(=O)O)C(=O)N[C@@H](Cc1c[nH]c2ccccc12)C(=O)N[C@H](C(=O)N[C@@H](CC(N)=O)C(=O)N[C@@H](CCCCN)C(N)=O)[C@@H](C)CC)[C@@H](C)CC)[C@@H](C)O)C(C)C` [SEQ ID NO: 3] (Ac-IMVTIPADLWDWINK-NH2), for which, in series [1], the IC50 is less than 400 nM. In series [2], this compound had a solubility not below 0.01 mM. In addition, in series [3], the “IP (isoelectric point)” value was determined as 3.90. Also, in series [3] (setting [4]), the logP was 1.33. Also, the logD in series [3] (setting [5]) is -1.87.
